In ChEMBL document CHEMBL3885881, “DrugMatrix”:
Values joined by “and” are separate entries in the source; they are usually repeats but may differ in a detail not shown here. Identical values can stand only once.

Species: Rattus norvegicus
Assay: DrugMatrix - Regimen: Daily Repeat
Assay type: toxicity, organism-based, Sprague-Dawley
Parameters: regimen Daily Repeat, gender Male, age 6-8 weeks
Settings: in vivo, po, 0 mg/kg, route oral GAVAGE, dose level Control, vehicle 100 % WATER; for ALANINE AMINOTRANSFERASE / ALBUMIN / ALKALINE PHOSPHATASE / ASPARTATE AMINOTRANSFERASE / BLOOD UREA NITROGEN / CARBON DIOXIDE / CHLORIDE / CHOLESTEROL / CREATINE PHOSPHOKINASE / CREATININE / GLUCOSE / LACTATE DEHYDROGENASE / LIPASE / PHOSPHORUS / POTASSIUM / SODIUM / TOTAL BILIRUBIN / TOTAL PROTEIN / URIC ACID: tissue Plasma
[1] = 120 h, tissue Blood, time 5 day

Compound: COCCc1ccc(OCC(O)CNC(C)C)cc1 (configuration not stated) [METOPROLOL]
- ABSOLUTE SEGMENTED NEUTROPHIL (72 h, tissue Blood, time 3 day): 1139.67 CELLS/uL
- BASOPHIL (72 h, tissue Blood, time 3 day): 1.07% and 0%
- EOSINOPHIL (72 h, tissue Blood, time 3 day): 1.03% and 0.83%
- ERYTHROCYTE COUNT (72 h, tissue Blood, time 3 day): 5.88 x10E6/uL and 5.54 x10E6/uL
- HEMATOCRIT (72 h, tissue Blood, time 3 day): 38.37% and 35.35%
- HEMOGLOBIN (72 h, tissue Blood, time 3 day): 12.5 G/DL and 13.22 G/DL
- LEUKOCYTE COUNT (72 h, tissue Blood, time 3 day): 11.61 x10E3/uL and 12 x10E3/uL
- LYMPHOCYTE (72 h, tissue Blood, time 3 day): 74.4% and 89%
- MEAN CORPUSCULAR HEMOGLOBIN (72 h, tissue Blood, time 3 day): 21.23 pg and 23.88 pg
- MEAN CORPUSCULAR HEMOGLOBIN CONCENTRATION (72 h, tissue Blood, time 3 day): 32.5 G/DL and 37.4 G/DL
- MEAN CORPUSCULAR VOLUME (72 h, tissue Blood, time 3 day): 65.47 fL and 63.85 fL
- MONOCYTE (72 h, tissue Blood, time 3 day): 2.73% and 1%
- NEUTROPHIL (72 h, tissue Blood, time 3 day): 20.17% and 9.17%
- NUCLEATED RED BLOOD CELLS (72 h, tissue Blood, time 3 day): 0 /100WBC
- PLATELET COUNT (72 h, tissue Blood, time 3 day): 1067 x10E3/uL and 1333.33 x10E3/uL
- ALANINE AMINOTRANSFERASE (72 h, time 3 day): 35.33 u/L and 53.17 u/L
- ALBUMIN (72 h, time 3 day): 3.83 G/DL and 4.32 G/DL
- ALKALINE PHOSPHATASE (72 h, time 3 day): 469.67 u/L and 404.33 u/L
- ASPARTATE AMINOTRANSFERASE (72 h, time 3 day): 65.33 u/L and 83.17 u/L
- BLOOD UREA NITROGEN (72 h, time 3 day): 16.33 mg/dL and 15.67 mg/dL
- CARBON DIOXIDE (72 h, time 3 day): 44.67 mmol/L and 27.33 mmol/L
- CHLORIDE (72 h, time 3 day): 102 MEQ/L and 101.83 MEQ/L
- CHOLESTEROL (72 h, time 3 day): 71.33 mg/dL and 68.67 mg/dL
- CREATINE PHOSPHOKINASE (72 h, time 3 day): 256.67 u/L and 276.17 u/L
- CREATININE (72 h, time 3 day): 0.4 mg/dL and 0.18 mg/dL
- GLUCOSE (72 h, time 3 day): 165 mg/dL and 163.5 mg/dL
- LACTATE DEHYDROGENASE (72 h, time 3 day): 114.33 u/L and 144.67 u/L
- LIPASE (72 h, time 3 day): 16 u/L and 8.83 u/L
- PHOSPHORUS (72 h, time 3 day): 10.7 mg/dL and 11.72 mg/dL
- POTASSIUM (72 h, time 3 day): 6.87 MEQ/L and 5.99 MEQ/L
- SODIUM (72 h, time 3 day): 143 MEQ/L and 143.57 MEQ/L
- TOTAL BILIRUBIN (72 h, time 3 day): 0.4 mg/dL and 0.2 mg/dL
- TOTAL PROTEIN (72 h, time 3 day): 6.37 G/DL and 6.1 G/DL
- URIC ACID (72 h, time 3 day): 0.87 mg/dL and 1.38 mg/dL
- ABSOLUTE SEGMENTED NEUTROPHIL [1]: 1137.17 CELLS/uL
- BASOPHIL [1]: 0.57% and 0%
- EOSINOPHIL [1]: 1.33% and 1.67%
- ERYTHROCYTE COUNT [1]: 6.38 x10E6/uL and 5.82 x10E6/uL
- HEMATOCRIT [1]: 42.13% and 36.35%
- HEMOGLOBIN [1]: 13.6 G/DL and 13.58 G/DL
- LEUKOCYTE COUNT [1]: 13.38 x10E3/uL and 14.38 x10E3/uL
- LYMPHOCYTE [1]: 81.03% and 90.5%
- MEAN CORPUSCULAR HEMOGLOBIN [1]: 21.27 pg and 23.32 pg
- MEAN CORPUSCULAR HEMOGLOBIN CONCENTRATION [1]: 32.27 G/DL and 37.42 G/DL
- MEAN CORPUSCULAR VOLUME [1]: 66 fL and 62.42 fL
- MONOCYTE [1]: 2% and 0.17%
- NEUTROPHIL [1]: 14.33% and 7.67%
- NUCLEATED RED BLOOD CELLS [1]: 0 /100WBC
- PLATELET COUNT [1]: 1279.33 x10E3/uL and 1337.67 x10E3/uL
- ALANINE AMINOTRANSFERASE (120 h, time 5 day): 29 u/L and 48.5 u/L
- ALBUMIN (120 h, time 5 day): 3.8 G/DL and 4.32 G/DL
- ALKALINE PHOSPHATASE (120 h, time 5 day): 440.33 u/L and 354.33 u/L
- ASPARTATE AMINOTRANSFERASE (120 h, time 5 day): 61.33 u/L and 80 u/L
- BLOOD UREA NITROGEN (120 h, time 5 day): 15.67 mg/dL and 16 mg/dL
- CARBON DIOXIDE (120 h, time 5 day): 44.67 mmol/L and 27.33 mmol/L
- CHLORIDE (120 h, time 5 day): 102 MEQ/L and 100.33 MEQ/L
- CHOLESTEROL (120 h, time 5 day): 59.67 mg/dL and 68 mg/dL
- CREATINE PHOSPHOKINASE (120 h, time 5 day): 184.33 u/L and 325.17 u/L
- CREATININE (120 h, time 5 day): 0.3 mg/dL and 0.23 mg/dL
- GLUCOSE (120 h, time 5 day): 180 mg/dL and 172 mg/dL
- LACTATE DEHYDROGENASE (120 h, time 5 day): 88.33 u/L and 254.83 u/L
- LIPASE (120 h, time 5 day): 8 u/L and 8.33 u/L
- PHOSPHORUS (120 h, time 5 day): 10.73 mg/dL and 12.17 mg/dL
- POTASSIUM (120 h, time 5 day): 6.5 MEQ/L and 6.28 MEQ/L
- SODIUM (120 h, time 5 day): 145.67 MEQ/L and 143.57 MEQ/L
- TOTAL BILIRUBIN (120 h, time 5 day): 0.3 mg/dL and 0.18 mg/dL
- TOTAL PROTEIN (120 h, time 5 day): 6.3 G/DL and 6.12 G/DL
- URIC ACID (120 h, time 5 day): 0.8 mg/dL and 1.78 mg/dL
- ABSOLUTE BASOPHIL ([…], tissue Blood, time 14 day): 130 cells/µL
- ABSOLUTE EOSINOPHIL ([…], tissue Blood, time 14 day): 60 cells/µL
- ABSOLUTE LYMPHOCYTE ([…], tissue Blood, time 14 day): 9510 cells/µL
- ABSOLUTE MONOCYTE ([…], tissue Blood, time 14 day): 270 cells/µL
